Like-named read-outs stand apart in the source and are kept apart here. Positions of bridges follow the written chain, without caps; N, C: chain ends. Non-standard residues stand in square brackets, D forms with d. Residues, ends and D or L forms follow the SMILES beside them. 2Pal = N[C@@H](Cc1ccccn1)C(=O)O
Legend:
Experiment in all cases: cell-based
hNav1.7 = hNav1.7 (Homo sapiens, UniProt Q15858); format: cell-based
hNav1.5 = hNav1.5 (Homo sapiens, UniProt Q14524)
hNav1.3 = hNav1.3 (Homo sapiens, UniProt Q9NY46); conditions: IonWorks Quattro, read-out: IWQ Use Nav1.3
[1] = IonWorks Quattro, Use, read-out: IWQ Use Nav1.7
[2] = IonWorks Quattro, Use, read-out: IWQ Use Nav1.5

hNav1.3, sequence (Q9NY46 whole entry, looked up): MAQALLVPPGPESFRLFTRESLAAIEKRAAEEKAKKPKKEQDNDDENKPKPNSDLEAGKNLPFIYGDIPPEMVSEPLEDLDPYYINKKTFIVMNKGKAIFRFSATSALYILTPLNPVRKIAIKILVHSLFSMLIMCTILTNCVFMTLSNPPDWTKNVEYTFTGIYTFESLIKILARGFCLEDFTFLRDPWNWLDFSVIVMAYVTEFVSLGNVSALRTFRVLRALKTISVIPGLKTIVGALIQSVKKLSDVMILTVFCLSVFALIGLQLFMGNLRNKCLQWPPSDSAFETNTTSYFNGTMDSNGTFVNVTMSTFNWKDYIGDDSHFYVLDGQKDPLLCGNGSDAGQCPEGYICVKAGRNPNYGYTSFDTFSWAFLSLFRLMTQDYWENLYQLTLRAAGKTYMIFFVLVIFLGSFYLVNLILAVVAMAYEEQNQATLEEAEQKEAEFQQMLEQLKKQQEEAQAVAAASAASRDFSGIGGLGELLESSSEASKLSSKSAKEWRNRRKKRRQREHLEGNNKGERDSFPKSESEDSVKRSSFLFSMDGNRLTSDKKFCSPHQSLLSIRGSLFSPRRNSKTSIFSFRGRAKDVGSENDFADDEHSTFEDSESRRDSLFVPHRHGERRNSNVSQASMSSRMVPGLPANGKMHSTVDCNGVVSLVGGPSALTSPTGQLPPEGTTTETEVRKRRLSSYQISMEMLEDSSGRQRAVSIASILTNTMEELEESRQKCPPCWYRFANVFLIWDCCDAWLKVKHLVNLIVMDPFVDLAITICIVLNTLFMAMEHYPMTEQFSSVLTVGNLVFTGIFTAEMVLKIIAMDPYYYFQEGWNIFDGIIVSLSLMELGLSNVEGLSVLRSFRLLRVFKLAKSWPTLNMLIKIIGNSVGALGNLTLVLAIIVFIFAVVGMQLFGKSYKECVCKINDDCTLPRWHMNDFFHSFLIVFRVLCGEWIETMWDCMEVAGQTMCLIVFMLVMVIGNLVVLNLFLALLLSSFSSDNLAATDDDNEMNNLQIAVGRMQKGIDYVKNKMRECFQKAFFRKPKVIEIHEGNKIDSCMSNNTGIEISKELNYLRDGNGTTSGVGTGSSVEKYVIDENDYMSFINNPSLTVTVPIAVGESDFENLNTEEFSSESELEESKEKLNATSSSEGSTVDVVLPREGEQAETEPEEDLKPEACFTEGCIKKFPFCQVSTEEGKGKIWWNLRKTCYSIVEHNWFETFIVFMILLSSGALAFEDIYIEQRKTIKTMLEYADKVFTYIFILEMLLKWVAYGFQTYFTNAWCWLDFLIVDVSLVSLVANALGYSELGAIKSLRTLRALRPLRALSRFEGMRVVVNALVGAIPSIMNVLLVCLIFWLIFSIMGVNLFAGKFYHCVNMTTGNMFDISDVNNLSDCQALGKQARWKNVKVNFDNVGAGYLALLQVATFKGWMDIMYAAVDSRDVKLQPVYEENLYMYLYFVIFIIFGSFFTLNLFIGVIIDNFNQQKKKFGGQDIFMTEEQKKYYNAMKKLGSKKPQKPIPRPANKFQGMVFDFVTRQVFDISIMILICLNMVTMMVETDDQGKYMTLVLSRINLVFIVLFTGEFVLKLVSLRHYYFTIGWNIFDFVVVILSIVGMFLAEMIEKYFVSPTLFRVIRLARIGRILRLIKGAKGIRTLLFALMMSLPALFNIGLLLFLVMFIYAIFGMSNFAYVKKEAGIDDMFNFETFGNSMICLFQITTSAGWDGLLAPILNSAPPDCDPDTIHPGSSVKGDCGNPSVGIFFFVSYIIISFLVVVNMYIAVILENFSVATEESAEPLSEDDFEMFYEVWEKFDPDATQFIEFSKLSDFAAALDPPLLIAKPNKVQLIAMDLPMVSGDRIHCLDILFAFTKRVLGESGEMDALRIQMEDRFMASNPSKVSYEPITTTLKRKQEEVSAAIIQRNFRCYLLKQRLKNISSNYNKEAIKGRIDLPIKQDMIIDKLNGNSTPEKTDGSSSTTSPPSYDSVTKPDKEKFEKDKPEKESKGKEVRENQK
hNav1.5, sequence (Q14524 whole entry, looked up): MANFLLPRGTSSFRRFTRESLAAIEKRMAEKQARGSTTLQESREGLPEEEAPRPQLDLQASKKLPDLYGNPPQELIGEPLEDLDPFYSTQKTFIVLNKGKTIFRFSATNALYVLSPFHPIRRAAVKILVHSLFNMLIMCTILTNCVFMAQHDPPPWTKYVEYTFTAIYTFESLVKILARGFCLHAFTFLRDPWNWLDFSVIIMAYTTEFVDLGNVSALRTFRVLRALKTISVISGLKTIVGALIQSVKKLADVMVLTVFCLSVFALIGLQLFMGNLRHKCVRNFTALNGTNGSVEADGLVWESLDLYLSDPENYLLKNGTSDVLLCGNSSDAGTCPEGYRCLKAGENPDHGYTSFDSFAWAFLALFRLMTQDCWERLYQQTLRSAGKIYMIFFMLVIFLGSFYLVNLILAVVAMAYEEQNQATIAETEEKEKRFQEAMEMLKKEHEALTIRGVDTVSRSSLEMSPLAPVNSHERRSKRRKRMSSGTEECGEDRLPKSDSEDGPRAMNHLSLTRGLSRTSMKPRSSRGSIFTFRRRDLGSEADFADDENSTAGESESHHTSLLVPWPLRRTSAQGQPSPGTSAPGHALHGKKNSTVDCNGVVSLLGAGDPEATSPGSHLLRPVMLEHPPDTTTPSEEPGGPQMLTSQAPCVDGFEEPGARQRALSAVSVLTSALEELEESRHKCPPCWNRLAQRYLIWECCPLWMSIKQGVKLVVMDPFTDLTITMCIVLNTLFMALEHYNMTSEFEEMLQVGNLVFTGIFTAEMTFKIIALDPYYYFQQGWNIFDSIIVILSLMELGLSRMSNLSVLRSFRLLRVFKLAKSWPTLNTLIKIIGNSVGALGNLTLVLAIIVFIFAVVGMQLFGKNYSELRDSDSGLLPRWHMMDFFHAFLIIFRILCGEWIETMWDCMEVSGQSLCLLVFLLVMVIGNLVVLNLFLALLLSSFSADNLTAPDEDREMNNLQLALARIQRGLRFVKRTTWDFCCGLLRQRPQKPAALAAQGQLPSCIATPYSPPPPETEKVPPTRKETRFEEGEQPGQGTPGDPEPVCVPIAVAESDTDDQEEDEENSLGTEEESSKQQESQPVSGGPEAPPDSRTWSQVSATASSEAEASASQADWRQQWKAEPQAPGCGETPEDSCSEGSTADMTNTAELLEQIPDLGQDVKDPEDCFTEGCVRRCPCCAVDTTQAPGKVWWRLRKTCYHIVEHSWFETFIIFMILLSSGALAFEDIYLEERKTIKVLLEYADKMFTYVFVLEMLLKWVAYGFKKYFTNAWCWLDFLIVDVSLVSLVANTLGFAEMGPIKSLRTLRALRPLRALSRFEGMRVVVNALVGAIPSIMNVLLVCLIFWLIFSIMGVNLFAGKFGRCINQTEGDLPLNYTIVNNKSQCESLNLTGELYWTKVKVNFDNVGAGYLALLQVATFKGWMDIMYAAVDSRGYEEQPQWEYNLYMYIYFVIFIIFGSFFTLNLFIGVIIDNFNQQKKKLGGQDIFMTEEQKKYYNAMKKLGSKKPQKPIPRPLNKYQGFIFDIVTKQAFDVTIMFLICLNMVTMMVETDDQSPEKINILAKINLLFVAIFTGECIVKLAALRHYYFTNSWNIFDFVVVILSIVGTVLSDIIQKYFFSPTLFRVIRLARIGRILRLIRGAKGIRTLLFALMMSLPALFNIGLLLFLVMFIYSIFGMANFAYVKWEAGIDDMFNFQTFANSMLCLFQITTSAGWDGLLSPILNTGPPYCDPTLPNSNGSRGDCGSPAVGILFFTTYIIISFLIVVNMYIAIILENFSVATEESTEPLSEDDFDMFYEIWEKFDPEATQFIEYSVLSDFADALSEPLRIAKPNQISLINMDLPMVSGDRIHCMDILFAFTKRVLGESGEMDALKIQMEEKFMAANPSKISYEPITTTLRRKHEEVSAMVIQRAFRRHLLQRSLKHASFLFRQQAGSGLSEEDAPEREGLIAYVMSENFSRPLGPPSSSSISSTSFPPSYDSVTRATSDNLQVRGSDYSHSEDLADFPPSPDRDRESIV

SMILES: CC[C@H](C)[C@@H]1NC(=O)[C@@H]2CSSC[C@@H]3NC(=O)[C@H](C(C)C)NC(=O)[C@H](Cc4ccccn4)NC(=O)[C@H](CC(N)=O)NC(=O)[C@@H]4CCCN4C(=O)[C@H](CCCNC(=N)N)NC(=O)[C@H](CSSC[C@H](NC(=O)[C@@H](N)CC(=O)O)C(=O)N[C@@H](CC(C)C)C(=O)NCC(=O)N[C@@H](Cc4ccccc4)C(=O)N[C@@H](CCSC)C(=O)N[C@@H](CCCNC(=N)N)C(=O)N[C@@H](CCCCN)C(=O)N2)NC(=O)[C@H](CSSC[C@@H](C(=O)N[C@@H](CCCCN)C(=O)N[C@@H](Cc2ccc(O)cc2)C(=O)N[C@H](C(=O)N[C@@H](Cc2ccccc2)C(N)=O)C(C)C)NC(=O)[C@H](Cc2c[nH]c4ccccc24)NC(=O)[C@H](CCCCN)NC(=O)[C@H](Cc2c[nH]cn2)NC(=O)[C@H]([C@@H](C)O)NC(=O)[C@H](CCCNC(=N)N)NC(=O)[C@H](CO)NC3=O)NC(=O)[C@H](CCCCN)NC(=O)[C@H](CC(=O)O)NC(=O)[C@H](CC(N)=O)NC(=O)[C@H](CC(=O)O)NC(=O)[C@@H]2CCCN2C1=O [compound 318] (H-DCLGFMRKCIPDNDKCCRPN[2Pal]VCSRTHKWCKYVF-NH2; disulfide 2-17, 9-23, 16-30)
- IC50 (hNav1.7; [1]): 180 nM
- IC50 (hNav1.5; [2]): 7.52 µM
- IC50 (hNav1.3; Use): 80 nM

SMILES: CC[C@H](C)[C@@H]1NC(=O)[C@@H]2CSSC[C@@H]3NC(=O)[C@H](C(C)C)NC(=O)[C@H](CC(C)C)NC(=O)[C@H](CC(N)=O)NC(=O)[C@@H]4CCCN4C(=O)[C@H](CCCNC(=N)N)NC(=O)[C@H](CSSC[C@H](NC(=O)[C@@H](N)CC(=O)O)C(=O)N[C@@H](CC(C)C)C(=O)NCC(=O)N[C@@H](Cc4ccccc4)C(=O)N[C@@H](CCSC)C(=O)N[C@@H](CCCNC(=N)N)C(=O)N[C@@H](CCCCN)C(=O)N2)NC(=O)[C@H](CSSC[C@@H](C(=O)N[C@@H](CCCCN)C(=O)N[C@@H](Cc2c[nH]c4ccccc24)C(=O)N[C@H](C(=O)N[C@@H](Cc2ccccc2)C(N)=O)C(C)C)NC(=O)[C@H](Cc2c[nH]c4ccccc24)NC(=O)[C@H](CCCCN)NC(=O)[C@H](Cc2c[nH]cn2)NC(=O)[C@H]([C@@H](C)O)NC(=O)[C@H](CCCNC(=N)N)NC(=O)[C@H](CO)NC3=O)NC(=O)[C@H](CCCCN)NC(=O)[C@H](CC(=O)O)NC(=O)[C@H](CC(N)=O)NC(=O)[C@H](CC(=O)O)NC(=O)[C@@H]2CCCN2C1=O [compound 85] (H-DCLGFMRKCIPDNDKCCRPNLVCSRTHKWCKWVF-NH2; disulfide 2-17, 9-23, 16-30)
- IC50 (hNav1.7; Table 25, IonWorks Quattro, use, […], read-out: IWQ Use Nav1.7): 90 nM
- IC50 (hNav1.5; Table 25, IonWorks Quattro, use, […], read-out: IWQ Use Nav1.5): 6.74 µM
- IC50 (hNav1.3; Table 25, use, […]): 160 nM

SMILES: CC[C@H](C)[C@@H]1NC(=O)[C@@H]2CSSC[C@@H]3NC(=O)[C@H](C(C)C)NC(=O)[C@H](CC(C)C)NC(=O)[C@H](CC(N)=O)NC(=O)[C@@H]4CCCN4C(=O)[C@H](CCCNC(=N)N)NC(=O)[C@H](CSSC[C@H](NC(=O)[C@@H](N)CC(=O)O)C(=O)N[C@@H](CC(C)C)C(=O)NCC(=O)N(C)[C@@H](CC(C)C)C(=O)N[C@@H](CCSC)C(=O)N[C@@H](CCCNC(=N)N)C(=O)N[C@@H](CCCCN)C(=O)N2)NC(=O)[C@H](CSSC[C@@H](C(=O)N[C@@H](CCCCN)C(=O)N[C@@H](Cc2ccc(O)cc2)C(=O)N[C@H](C(=O)N[C@@H](Cc2ccccc2)C(N)=O)C(C)C)NC(=O)[C@H](Cc2c[nH]c4ccccc24)NC(=O)[C@H](CCCCN)NC(=O)[C@H](Cc2cnc[nH]2)NC(=O)[C@H]([C@@H](C)O)NC(=O)[C@H](CCCNC(=N)N)NC(=O)[C@H](CO)NC3=O)NC(=O)[C@H](CCCCN)NC(=O)[C@H](CC(=O)O)NC(=O)[C@H](CC(N)=O)NC(=O)[C@H](CC(=O)O)NC(=O)[C@@H]2CCCN2C1=O [compound 688]
- IC50 (hNav1.7): 290 nM
- IC50 (hNav1.5; IWQ Use Nav1.5): > 5 µM
- IC50 (hNav1.3; use-dependent protocol, hNav1.3): 730 nM

SMILES: CC[C@H](C)[C@@H]1NC(=O)[C@@H]2CSSC[C@@H]3NC(=O)[C@H](C(C)C)NC(=O)[C@H](CC(C)C)NC(=O)[C@H](CC(N)=O)NC(=O)[C@@H]4CCCN4C(=O)[C@H](CCCNC(N)=O)NC(=O)[C@H](CSSC[C@H](NC(=O)[C@@H](N)CC(=O)O)C(=O)N[C@@H](CC(C)C)C(=O)NCC(=O)N[C@@H](Cc4ccccc4)C(=O)N[C@@H](CCSC)C(=O)N[C@@H](CCCNC(=N)N)C(=O)N[C@@H](CCCCN)C(=O)N2)NC(=O)[C@H](CSSC[C@@H](C(=O)N[C@@H](CCCCN)C(=O)N[C@@H](Cc2ccc(O)cc2)C(=O)N[C@H](C(=O)N[C@@H](Cc2ccccc2)C(N)=O)C(C)C)NC(=O)[C@H](Cc2c[nH]c4ccccc24)NC(=O)[C@H](CCCCN)NC(=O)[C@H](Cc2cnc[nH]2)NC(=O)[C@H]([C@@H](C)O)NC(=O)[C@H](CCCNC(=N)N)NC(=O)[C@H](CO)NC3=O)NC(=O)[C@H](CCCCN)NC(=O)[C@H](CC(=O)O)NC(=O)[C@H](CC(N)=O)NC(=O)[C@H](CC(=O)O)NC(=O)[C@@H]2CCCN2C1=O [compound 116]
- IC50 (hNav1.7; [1]): 170 nM
- IC50 (hNav1.5; IWQ Use Nav1.5 (μM)): 11 µM
- IC50 (hNav1.3; Use): 230 nM

SMILES: CC[C@H](C)[C@@H]1NC(=O)[C@@H]2CSSC[C@@H]3NC(=O)[C@H](C(C)C)NC(=O)[C@H](CC(C)C)NC(=O)[C@H](CC(N)=O)NC(=O)[C@@H]4CCCN4C(=O)[C@H](CCCNC(=N)N)NC(=O)[C@H](CSSC[C@H](NC(=O)[C@@H](N)CC(=O)O)C(=O)N[C@@H](CC(C)C)C(=O)NCC(=O)N[C@@H](Cc4ccccc4)C(=O)N[C@@H](CCSC)C(=O)N[C@@H](CCCNC(=N)N)C(=O)N[C@@H](CCCCN)C(=O)N2)NC(=O)[C@H](CSSC[C@@H](C(=O)N[C@@H](CCCCN)C(=O)N[C@@H](Cc2ccc(O)cc2)C(=O)N[C@H](C(=O)N[C@@H](Cc2ccccc2)C(=O)N[C@@H](Cc2ccccn2)C(N)=O)C(C)C)NC(=O)[C@H](Cc2c[nH]c4ccccc24)NC(=O)[C@H](CCCCN)NC(=O)[C@H](Cc2c[nH]cn2)NC(=O)[C@H]([C@@H](C)O)NC(=O)[C@H](CCCNC(=N)N)NC(=O)[C@H](CO)NC3=O)NC(=O)[C@H](CCCCN)NC(=O)[C@H](CC(=O)O)NC(=O)[C@H](CC(N)=O)NC(=O)[C@H](CC(=O)O)NC(=O)[C@@H]2CCCN2C1=O [compound 414]
- IC50 (hNav1.7; IonWorks Quattro, use-dependent, […], read-out: IWQ Use Nav1.7 (μm)): 260 nM
- IC50 (hNav1.5; IonWorks Quattro, use-dependent, […], read-out: IWQ Use Nav1.5): 9.29 µM
- IC50 (hNav1.3; use-dependent, […]): 630 nM

SMILES: CC[C@H](C)[C@@H]1NC(=O)[C@@H]2CSSC[C@@H]3NC(=O)[C@H](C(C)C)NC(=O)[C@H](CC(C)C)NC(=O)[C@H](CC(N)=O)NC(=O)[C@@H]4CCCN4C(=O)[C@H](CCCNC(=N)N)NC(=O)[C@H](CSSC[C@H](NC(=O)[C@@H](N)CC(=O)O)C(=O)N[C@@H](CC(C)C)C(=O)NCC(=O)N[C@@H](C)C(=O)N[C@@H](CC(C)C)C(=O)N[C@@H](CCCNC(=N)N)C(=O)N[C@@H](CCCCN)C(=O)N2)NC(=O)[C@H](CSSC[C@@H](C(=O)N[C@@H](CCCCN)C(=O)N[C@@H](Cc2ccc(O)cc2)C(=O)N[C@H](C(=O)N[C@@H](Cc2ccccc2)C(=O)O)C(C)C)NC(=O)[C@H](Cc2c[nH]c4ccccc24)NC(=O)[C@H](CCCNC(=N)N)NC(=O)[C@H](Cc2c[nH]cn2)NC(=O)[C@H]([C@@H](C)O)NC(=O)[C@H](CCCNC(=N)N)NC(=O)[C@H](CO)NC3=O)NC(=O)[C@H](CCCCN)NC(=O)[C@H](CC(=O)O)NC(=O)[C@H](CO)NC(=O)[C@H](CC(=O)O)NC(=O)[C@@H]2CCCN2C1=O [compound 871] (H-DCLGALRKCIPDSDKCCRPNLVCSRTHRWCKYVF-OH; disulfide 2-17, 9-23, 16-30)
- IC50 (hNav1.7; IonWorks Quattro, use-dependent block, hNav1.7, read-out: IWQ Use Nav1.7): > 5000 nM
- IC50 (hNav1.5; IonWorks Quattro, use-dependent block, hNav1.5, read-out: IWQ Use Nav1.5): > 5 µM
- IC50 (hNav1.3; use-dependent block, hNav1.3): > 5000 nM

SMILES: CC[C@H](C)[C@@H]1NC(=O)[C@@H]2CSSC[C@@H]3NC(=O)[C@H](C(C)C)NC(=O)[C@H](CC(C)C)NC(=O)[C@H](CC(N)=O)NC(=O)[C@@H]4CCCN4C(=O)[C@H](CCCNC(=N)N)NC(=O)[C@H](CSSC[C@H](NC(=O)[C@@H](N)CC(=O)O)C(=O)N[C@@H](CC(C)C)C(=O)NCC(=O)N[C@@H](Cc4ccccc4)C(=O)N[C@@H](CCSC)C(=O)N[C@@H](CCCNC(=N)N)C(=O)N[C@@H](CCCCN)C(=O)N2)NC(=O)[C@H](CSSC[C@@H](C(=O)N[C@@H](CCCCN)C(=O)N[C@@H](Cc2ccc(O)cc2)C(=O)N[C@H](C(=O)N[C@@H](Cc2ccccc2)C(N)=O)C(C)C)NC(=O)[C@H](Cc2c[nH]c4ccccc24)NC(=O)[C@H](CCCCN)NC(=O)[C@H](Cc2cnc[nH]2)NC(=O)[C@H]([C@@H](C)O)NC(=O)[C@H](CCCNC(=N)N)NC(=O)[C@H](CO)NC3=O)NC(=O)[C@H](C)NC(=O)[C@H](CC(=O)O)NC(=O)[C@H](CC(N)=O)NC(=O)[C@H](CC(=O)O)NC(=O)[C@@H]2CCCN2C1=O [compound 6] (H-DCLGFMRKCIPDNDACCRPNLVCSRTHKWCKYVF-NH2; disulfide 2-17, 9-23, 16-30)
- IC50 (hNav1.7; [1]): 220 nM
- IC50 (hNav1.5; [2]): 9.64 µM
- IC50 (hNav1.3; Use): 190 nM
